Format in all cases: biochemical
One assay addresses Human PDE4A (Homo sapiens (Human), UniProt P27815). As to the kind of experiment: PDE4A Scintillation Proximity Assay (SPA), inhibition of enzyme activity. Conditions: read-out: Human PDE4A FL. For orientation: SPA uses beads or plates that emit light when radiolabelled molecules are held near them.
Another assay concerns the target Human PDE4D (Homo sapiens (Human), UniProt Q08499). As to the kind of experiment: PDE4D Scintillation Proximity Assay (SPA), inhibition of enzyme activity. Conditions: read-out: Human PDE4D FL.
In the next assay the target is Human PDE4C (Homo sapiens (Human), UniProt Q08493). Briefly: PDE4C Scintillation Proximity Assay (SPA), inhibition of enzyme activity. Conditions: read-out: Human PDE4C FL.
Human PDE4C, sequence (Q08493 2-712): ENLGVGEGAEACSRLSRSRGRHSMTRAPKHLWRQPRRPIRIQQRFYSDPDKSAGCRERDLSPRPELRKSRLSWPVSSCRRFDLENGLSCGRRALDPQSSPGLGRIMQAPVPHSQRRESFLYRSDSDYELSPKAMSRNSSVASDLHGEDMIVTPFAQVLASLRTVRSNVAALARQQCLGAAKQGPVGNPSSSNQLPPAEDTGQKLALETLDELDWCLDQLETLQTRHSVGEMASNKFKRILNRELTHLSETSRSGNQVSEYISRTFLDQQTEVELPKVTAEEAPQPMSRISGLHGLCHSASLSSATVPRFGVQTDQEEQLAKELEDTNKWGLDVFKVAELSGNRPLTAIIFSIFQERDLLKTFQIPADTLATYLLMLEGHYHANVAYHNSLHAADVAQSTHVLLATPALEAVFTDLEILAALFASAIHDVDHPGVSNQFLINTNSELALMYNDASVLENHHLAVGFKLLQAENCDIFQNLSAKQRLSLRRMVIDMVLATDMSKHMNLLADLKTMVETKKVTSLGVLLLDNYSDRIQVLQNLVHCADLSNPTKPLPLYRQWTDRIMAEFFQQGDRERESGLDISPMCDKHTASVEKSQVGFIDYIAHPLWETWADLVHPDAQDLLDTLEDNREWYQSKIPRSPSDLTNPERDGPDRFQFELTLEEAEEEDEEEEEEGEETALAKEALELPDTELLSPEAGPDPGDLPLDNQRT
Setting [1] is: human recombinant enzyme, 1 μM cAMP substrate, 30 min at 25° C., geometric mean of 2-9 determinations unless otherwise indicated.

Like-named read-outs stand apart in the source and are kept apart here.

Human PDE4D, sequence (Q08499 186-808): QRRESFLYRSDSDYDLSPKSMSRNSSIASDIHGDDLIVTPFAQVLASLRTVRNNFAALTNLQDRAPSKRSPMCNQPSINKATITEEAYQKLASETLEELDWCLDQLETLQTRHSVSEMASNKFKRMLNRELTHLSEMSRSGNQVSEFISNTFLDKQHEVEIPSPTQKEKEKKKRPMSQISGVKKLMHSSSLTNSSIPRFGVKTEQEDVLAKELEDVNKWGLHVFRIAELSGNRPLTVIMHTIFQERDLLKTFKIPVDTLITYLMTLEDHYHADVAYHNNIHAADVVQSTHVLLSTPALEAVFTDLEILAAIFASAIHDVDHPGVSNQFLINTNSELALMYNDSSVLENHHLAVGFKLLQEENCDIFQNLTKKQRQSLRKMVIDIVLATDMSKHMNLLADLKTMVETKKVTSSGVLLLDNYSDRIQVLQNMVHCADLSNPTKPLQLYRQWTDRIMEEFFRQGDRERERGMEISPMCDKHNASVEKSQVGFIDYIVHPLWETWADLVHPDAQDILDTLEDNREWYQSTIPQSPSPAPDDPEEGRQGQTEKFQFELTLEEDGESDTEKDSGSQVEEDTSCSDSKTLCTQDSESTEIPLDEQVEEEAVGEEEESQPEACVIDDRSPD
Human PDE4A, sequence (P27815 other isoform, or with tags, fused parts or gaps): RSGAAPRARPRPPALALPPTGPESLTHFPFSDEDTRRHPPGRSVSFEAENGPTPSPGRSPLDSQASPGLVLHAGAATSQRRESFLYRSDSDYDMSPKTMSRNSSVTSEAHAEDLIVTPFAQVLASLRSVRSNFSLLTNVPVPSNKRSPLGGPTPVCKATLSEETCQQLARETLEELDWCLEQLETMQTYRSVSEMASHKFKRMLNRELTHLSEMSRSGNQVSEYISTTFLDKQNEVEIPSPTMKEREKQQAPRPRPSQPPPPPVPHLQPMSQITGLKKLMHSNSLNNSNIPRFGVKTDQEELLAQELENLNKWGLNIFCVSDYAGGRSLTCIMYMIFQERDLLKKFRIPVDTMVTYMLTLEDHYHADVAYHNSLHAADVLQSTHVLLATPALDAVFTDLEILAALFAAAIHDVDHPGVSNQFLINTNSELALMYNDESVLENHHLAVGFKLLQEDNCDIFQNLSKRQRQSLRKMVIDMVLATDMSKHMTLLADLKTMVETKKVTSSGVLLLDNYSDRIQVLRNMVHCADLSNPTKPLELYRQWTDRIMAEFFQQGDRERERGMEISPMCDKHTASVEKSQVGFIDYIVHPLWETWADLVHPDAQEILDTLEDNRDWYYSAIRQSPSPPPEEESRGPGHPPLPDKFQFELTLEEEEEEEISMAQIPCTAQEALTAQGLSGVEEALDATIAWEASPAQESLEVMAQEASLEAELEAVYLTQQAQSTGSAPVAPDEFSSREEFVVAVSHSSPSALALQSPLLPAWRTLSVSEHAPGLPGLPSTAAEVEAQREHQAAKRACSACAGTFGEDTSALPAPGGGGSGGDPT
Method for Human PDE4A: (§1) The PDE4A3, PDE4B1, PDE4C1 and PDE4D3 assays use the Scintillation Proximity Assay (SPA) technology to measure the inhibition of human recombinant PDE4A1, PDE4B3, PDE4C1, and PDE4D3 enzyme activity by compounds in vitro. The PDE4A1, PDE4B3, PDE4C1, and PDE4D3 assays are run in parallel using identical parameters, except for the concentration of enzyme (80 pM PDE4A3, 40 pM PDE4B3, 40 pM PDE4C1 and 10 pM PDE4D). […] Reactions are incubated for 30 min at 25° C. The addition of 20 uL of 8 mg/ml yitrium silicate SPA beads (Perkin Elmer) stops the reaction. The plates are sealed (TopSeal, Perkin Elmer) and the beads are allowed to settle for 8 hrs, after which they are read on the Trilux Microbeta overnight.
Method for Human PDE4C: as §1

For the compound `O=C(NCC1CC1)c1nc2cccnn2c1-c1ccc(Cl)cc1` [Example 102, 3-(4-chlorophenyl)-N-(cyclopropylmethyl)imidazo[1,2-b]pyridazine-2-carboxamide], the IC50 on Human PDE4A (setting [1]) came out at 59.9 nM; on Human PDE4D (setting [1]) it was 5010 nM; at Human PDE4C (setting [1]), 76 nM.

In the case of `CCCNC(=O)c1nc2cccnn2c1-c1cc(Cl)cc(Cl)c1` [Example 28, 3-(3,5-dichlorophenyl)-N-propylimidazo[1,2-b]pyridazine-2-carboxamide], the IC50 on Human PDE4A (setting [1]) came out at 15.6 nM; on Human PDE4D (setting [1]), 393 nM; on Human PDE4C (setting [1]), 49 nM.

Turning to `CCNC(=O)c1nc2cccnn2c1-c1cc(F)c(Cl)cc1F` [Example 96, 3-(4-chloro-2,5-difluorophenyl)-N-ethylimidazo[1,2-b]pyridazine-2-carboxamide], the IC50 was 4.58 nM at Human PDE4A (setting [1]), 908 nM at Human PDE4D (setting [1]) and 29.2 nM on Human PDE4C (setting [1]).

Turning to `O=C(c1nc2cccnn2c1-c1ccc(Cl)cc1)N1CC(F)(F)C1` [Example 61, [3-(4-chlorophenyl)imidazo[1,2-b]pyridazin-2-yl](3,3-difluoroazetidin-1-yl)methanone], the IC50 came out at 144 nM at Human PDE4A (setting [1]), 1930 nM on Human PDE4D (setting [1]) and 126 nM on Human PDE4C (setting [1]).

Take `CC1(NC(=O)c2nc3cccnn3c2-c2ccc(Cl)cc2)CC1` [Example 33, 3-(4-chlorophenyl)-N-(1-methylcyclopropyl)imidazo[1,2-b]pyridazine-2-carboxamide]: the IC50 was 58.6 nM on Human PDE4A (setting [1]), 2330 nM on Human PDE4D (setting [1]) and 127 nM on Human PDE4C (setting [1]).

In the case of `O=C(NC1CC1)c1nc2cccnn2c1-c1ccc(Cl)c(F)c1` [Example 10, 3-(4-chloro-3-fluorophenyl)-N-cyclopropylimidazo[1,2-b]pyridazine-2-carboxamide], the IC50 is 1.51 nM at Human PDE4A (setting [1]), 590 nM at Human PDE4D (setting [1]) and 6.84 nM at Human PDE4C (setting [1]).

For `CC1CC1NC(=O)c1nc2cccnn2c1-c1ccc(Cl)cc1` (stereo not drawn) [Example 30, 3-(4-chlorophenyl)-N-(2-methylcyclopropyl)imidazo[1,2-b]pyridazine-2-carboxamide], the IC50 came out at 11.6 nM at Human PDE4A (setting [1]), 4000 nM on Human PDE4D (setting [1]) and 24.5 nM at Human PDE4C (setting [1]).

Turning to `Cn1cc(NC(=O)c2nc3cccnn3c2-c2ccc(Cl)c(F)c2)cn1` [Example 7, 3-(4-Chloro-3-fluorophenyl)-N-(1-methyl-1H-pyrazol-4-yl)imidazo[1,2-b]pyridazine-2-carboxamide], the IC50 is 2.77 nM on Human PDE4A, 34.5 nM on Human PDE4D and 2.35 nM on Human PDE4C.

Regarding `O=C(NC1CC1)c1nc2cccnn2c1-c1ccnc(OC(F)F)c1` [Example 75, N-cyclopropyl-3-[2-(difluoromethoxy)pyridin-4-yl]imidazo[1,2-b]pyridazine-2-carboxamide], the IC50 was 10.5 nM on Human PDE4A (setting [1]), 104 nM on Human PDE4D (setting [1]) and 24.9 nM on Human PDE4C (setting [1]).

The values are drawn from US9598421B2, “Imidazopyridazine compounds” (Pfizer Inc., priority 2014, dated 2017).
